Assay results as given in ChEMBL document CHEMBL1201862, “PubChem BioAssay data set” (2004).
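Each compound was tested at five concentrations against cells in 96-well plates for 48 hours. GI50 marks 50% less growth.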 The source made the active and inactive calls. Cut-off read from the data, not from the text of the source: active = GI50 up to about 1.1 µM and inactive = higher.

How the values were obtained:
Assay in all cases: growth of human tumour cells (NCI), 48 h
NCI-H226 = system: NCI-H226
NCI-H460 = system: NCI-H460
A549 = system: A549
SF-539 = system: SF-539
PC-3 = system: PC-3
HCT-15 = system: HCT-15
MDA-N = system: MDA-N
HT-29 = system: HT-29
NCI-H23 = system: NCI-H23
SNB-19 = system: SNB-19
SF-268 = system: SF-268
SR = system: SR
MCF7 = system: MCF7
OVCAR-8 = system: OVCAR-8
RPMI-8226 = system: RPMI-8226
Hs-578T = system: Hs-578T
M14 = system: M14
SF-295 = system: SF-295
HCT-116 = system: HCT-116
SW-620 = system: SW-620
HL-60 = system: HL-60
UACC-257 = system: UACC-257
HOP-92 = system: HOP-92
T47D = system: T47D
CCRF-CEM = system: CCRF-CEM
NCI/ADR-RES = system: NCI/ADR-RES
MDA-MB-435 = system: MDA-MB-435
A498 = system: A498
SK-MEL-28 = system: SK-MEL-28
K562 = system: K562
MDA-MB-231 = system: MDA-MB-231
SK-MEL-2 = system: SK-MEL-2
SK-OV-3 = system: SK-OV-3
HOP-62 = system: HOP-62
TK-10 = system: TK-10
SN12C = system: SN12C
HCC 2998 = system: HCC 2998
NCI-H522 = system: NCI-H522
OVCAR-5 = system: OVCAR-5
DU-145 = system: DU-145
UO-31 = system: UO-31
786-0 = system: 786-0
IGROV-1 = system: IGROV-1
COLO 205 = system: COLO 205
RXF 393 = system: RXF 393
SK-MEL-5 = system: SK-MEL-5
MOLT-4 = system: MOLT-4
BT-549 = system: BT-549
EKVX = system: EKVX
ACHN = system: ACHN
LOX IMVI = system: LOX IMVI
KM12 = system: KM12
CAKI-1 = system: CAKI-1
Malme-3M = system: Malme-3M
OVCAR-4 = system: OVCAR-4
UACC-62 = system: UACC-62
OVCAR-3 = system: OVCAR-3
U-251 = system: U-251
SNB-75 = system: SNB-75

Measured: GI50

CC(C(=O)OCc1ccccc1)(c1ccco1)N1C(=O)OC(c2ccccc2)C1c1ccccc1 (stereo unspecified)
> 100 µM: HCT-15
inactive: NCI-H226 > 100 µM | NCI-H460 26.1 µM | A549 > 100 µM | SF-539 > 100 µM | PC-3 6.01 µM | MDA-N > 51.1 µM | HT-29 > 100 µM | NCI-H23 > 100 µM | SNB-19 > 100 µM | SF-268 > 100 µM | SR > 34.8 µM | MCF7 > 100 µM | OVCAR-8 > 100 µM | RPMI-8226 4.37 µM | Hs-578T > 100 µM | M14 > 100 µM | SF-295 > 100 µM | HCT-116 > 100 µM | SW-620 > 100 µM | HL-60 3.81 µM | UACC-257 > 100 µM | HOP-92 > 100 µM | T47D 5.96 µM | CCRF-CEM 4.04 µM | NCI/ADR-RES > 100 µM | MDA-MB-435 > 100 µM | A498 > 59.8 µM | SK-MEL-28 > 100 µM | K562 7.18 µM | MDA-MB-231 > 30.5 µM | SK-MEL-2 > 100 µM | SK-OV-3 > 100 µM | HOP-62 > 100 µM | TK-10 > 100 µM | SN12C > 100 µM | HCC 2998 > 100 µM | NCI-H522 > 100 µM | OVCAR-5 > 100 µM | DU-145 > 100 µM | UO-31 6.34 µM | 786-0 > 100 µM | IGROV-1 > 100 µM | COLO 205 > 100 µM | RXF 393 > 100 µM | SK-MEL-5 > 30.1 µM | MOLT-4 5.05 µM | BT-549 > 100 µM | EKVX 99.3 µM | ACHN > 100 µM | LOX IMVI 14.7 µM | KM12 > 25.8 µM | CAKI-1 > 100 µM | Malme-3M > 100 µM | OVCAR-4 > 100 µM | UACC-62 97.1 µM | OVCAR-3 > 100 µM | U-251 > 100 µM | SNB-75 > 100 µM

CCOc1cc2c(cc1OC(C)=O)C(=O)CC[C@H]1C3CC[C@H](OC(C)=O)[C@@]3(C)CC[C@H]21 (stereo partly specified)
inactive: NCI-H226 > 100 µM | NCI-H460 > 100 µM | A549 > 100 µM | SF-539 > 100 µM | PC-3 > 100 µM | MDA-N > 100 µM | HT-29 > 100 µM | NCI-H23 > 100 µM | SNB-19 > 100 µM | SF-268 > 100 µM | SR > 100 µM | MCF7 > 100 µM | OVCAR-8 > 100 µM | RPMI-8226 > 100 µM | Hs-578T > 100 µM | M14 > 100 µM | SF-295 > 100 µM | HCT-116 > 100 µM | SW-620 > 100 µM | HL-60 > 100 µM | UACC-257 > 100 µM | HOP-92 > 100 µM | T47D > 100 µM | CCRF-CEM > 100 µM | NCI/ADR-RES > 100 µM | MDA-MB-435 > 100 µM | A498 > 100 µM | SK-MEL-28 > 100 µM | K562 > 100 µM | MDA-MB-231 > 100 µM | SK-MEL-2 > 100 µM | SK-OV-3 > 100 µM | HOP-62 > 100 µM | TK-10 > 100 µM | HCC 2998 > 100 µM | NCI-H522 > 100 µM | OVCAR-5 > 100 µM | DU-145 > 100 µM | UO-31 > 100 µM | 786-0 > 100 µM | COLO 205 > 100 µM | RXF 393 > 100 µM | SK-MEL-5 > 100 µM | MOLT-4 > 100 µM | BT-549 > 100 µM | EKVX > 100 µM | ACHN > 100 µM | LOX IMVI > 100 µM | KM12 > 100 µM | CAKI-1 > 100 µM | Malme-3M > 100 µM | OVCAR-4 > 100 µM | UACC-62 > 100 µM | OVCAR-3 > 100 µM | U-251 > 100 µM | SNB-75 > 100 µM
> 100 µM: HCT-15
